Laboratory results from patent US7378446B2, “Compound having anti-HCV activity and process for producing the same” (Chugai Seiyaku Kabushiki Kaisha, priority 2003, dated 2008).

What was measured:
[1] = tested on: Firefly luciferase HCV replicon cells (3-1); assay: Replicon assay (firefly luciferase HCV replicon); type: cell-based; details: Hepatitis C virus, 72 h; Huh7-derived luciferase HCV replicon cells, 3 days culture with compound, Steady-Glo luminescence
Procedure: (§1) A construct was prepared in which a luciferase gene derived from firefly was introduced as a reporter gene in HCV-RNA to assay the number of copies of HCV-RNA. The luciferase gene was introduced in the form of fusing with neomycin-resistance gene directly below the IRES (Internal Ribosome Entry Site) of the HCV gene in accordance with the method of Krieger, et al. (J. Virol. 75:4614). After synthesizing this RNA in vitro, it was introduced into Huh7 cell by electroporation and isolated as G418-resistant clone. Firefly luciferase HCV replicon cells (3-1) were suspended in Dulbecco's MEM (Gibco cat. no. 10569-010) containing 5% fetal bovine serum (Hyclone cat. no. SH30071.03), inoculated into the wells of a 96-well plate at 5000 cells/well and then cultured overnight at 37° C. and 5% CO2. Approximately 20 hours later, the diluted test compound was added at 10 μl per well followed by culturing for another 3 days. Two series of assay plates were prepared, and the assay was carried out using a white plate for one series and a clear plate for the other series. Following completion of culturing, the white plate was used for the Steady-Glo Luciferase Assay System (Promega cat. no. E2520). Namely, after adding 100 μl of reagent per well, mixing by a pipette 3 to 4 times and then allowing to stand for 5 minutes, luminescence was measured with the 1450 MicroBeta TRILUX (Wallac). Values obtained in the absence of cell addition were used as background values and subtracted from all values to calculate the IC50 (50% inhibitory concentration) of the drug based on a value of 0% inhibition for the value in the absence of addition of test compound.

in vitro = type: cell-based; details: human; replicon cells, 3 days culture with compound, Cell Counting Kit 8, absorbance 450 nm; read-out: Cytotoxicity CC50
Procedure: as §1
The Cell Counting Kit 8 (Dojindo cat. no. CK04) was used to determine the cytotoxicity. Namely, 10 μl of Cell Counting Kit 8 were added to a clear plate and incubated for 30 to 60 minutes at 37° C. Absorbance at a wavelength of 450 nm and a control wavelength of 630 nm was measured with a 96-well plate reader. Values in the absence of cell addition were used as background values and subtracted from all values to calculate the CC50 (50% cell inhibitory concentration) of the drug based on a value of 0% inhibition for the value in the absence of addition of drug.

SMILES	IC50 [1] [nM]	CC50 (in vitro) [nM]
CCCC(=O)CCCCCC/C=C/[C@H](C(=O)N[C@@H](Cc1ccc(OCCC(C)C)cc1)C(=O)O)[C@@](O)(CC(=O)O)C(=O)O [Compound 46]	800	> 5000
CC(C)CCOc1ccc(C[C@H](NC(=O)[C@@H](/C=C/CCCCCCC(=O)CCc2ccccc2)[C@@](O)(CC(=O)O)C(=O)O)C(=O)O)cc1 [Compound 47]	250	> 1000
C=CCCCCCC(=O)CCCCCC/C=C/[C@H](C(=O)N[C@@H](Cc1ccc(OCCC(C)C)cc1)C(=O)O)[C@@](O)(CC(=O)O)C(=O)O [Compound 48]	3	> 1000
CCCCCCCCC(=O)CCCCCC/C=C/[C@H](C(=O)N[C@@H](Cc1ccc(OCCC(C)C)cc1)C(=O)O)[C@@](O)(CC(=O)O)C(=O)O [Compound 49]	4	> 1000
CC(C)CCCCC(=O)CCCCCC/C=C/[C@H](C(=O)N[C@@H](Cc1ccc(OCCC(C)C)cc1)C(=O)O)[C@](O)(CC(=O)O)C(=O)O [Compound 50]	4	> 1000
CCCCCCC(=O)CCCCCC/C=C/[C@H](C(=O)N[C@@H](Cc1ccc(OCCC(C)C)cc1)C(=O)O)[C@](O)(CC(=O)O)C(=O)O [Compound 51]	17	> 1000
CC(C)CCOc1ccc(C[C@H](NC(=O)[C@@H](/C=C/CCCCCCC(=O)CCC2CCCCC2)[C@](O)(CC(=O)O)C(=O)O)C(=O)O)cc1 [Compound 52]	24	> 1000
CCCCCCCC(=O)CCCCCC/C=C/[C@H](C(=O)N[C@@H](Cc1ccc(Oc2ccc(C)cc2)cc1)C(=O)O)[C@@](O)(CC(=O)O)C(=O)O [Compound 53]	2	> 1000
CCCCCCCC(=O)CCCCCC/C=C/[C@H](C(=O)N[C@@H](Cc1ccc(Oc2ccc(OC)cc2)cc1)C(=O)O)[C@@](O)(CC(=O)O)C(=O)O [Compound 54]	2	> 1000
CCCCCCCC(=O)CCCCCC/C=C/[C@H](C(=O)N[C@@H](Cc1ccc(Oc2ccc(C(F)(F)F)cc2)cc1)C(=O)O)[C@@](O)(CC(=O)O)C(=O)O [Compound 55]	19	> 1000
CCCCCCCC(=O)CCCCCC/C=C/[C@H](C(=O)N[C@@H](Cc1ccc(Oc2cccc(C)c2)cc1)C(=O)O)[C@@](O)(CC(=O)O)C(=O)O [Compound 56]	6	> 1000
CCCCCCCC(=O)CCCCCC/C=C/[C@H](C(=O)N[C@@H](Cc1ccc(Oc2cccc(C(F)(F)F)c2)cc1)C(=O)O)[C@@](O)(CC(=O)O)C(=O)O [Compound 57]	11	> 1000
CCCCCCCC(=O)CCCCCC/C=C/[C@H](C(=O)N[C@@H](Cc1ccc(-c2ccc(OC)cc2)cc1)C(=O)O)[C@@](O)(CC(=O)O)C(=O)O [Compound 58]	4	> 1000
CCCCCCCC(=O)CCCCCC/C=C/[C@H](C(=O)N[C@@H](Cc1ccc(-c2ccc(C)cc2)cc1)C(=O)O)[C@@](O)(CC(=O)O)C(=O)O [Compound 59]	3	> 1000
CCCCCCCC(=O)CCCCCC/C=C/[C@H](C(=O)N[C@@H](Cc1ccc(-c2ccc(C(F)(F)F)cc2)cc1)C(=O)O)[C@@](O)(CC(=O)O)C(=O)O [Compound 60]	8	> 1000
CCCCCCCC(=O)CCCCCC/C=C/[C@H](C(=O)N[C@@H](Cc1ccc(-c2cccc(C)c2)cc1)C(=O)O)[C@@](O)(CC(=O)O)C(=O)O [Compound 61]	6	> 1000
CCCCCCCC(=O)CCCCCC/C=C/[C@H](C(=O)N[C@@H](Cc1ccc(-c2cccc(OC)c2)cc1)C(=O)O)[C@@](O)(CC(=O)O)C(=O)O [Compound 62]	2	> 1000
CCCCCCCC(=O)CCCCCC/C=C/[C@H](C(=O)N[C@@H](Cc1ccc(-c2cccc(C(F)(F)F)c2)cc1)C(=O)O)[C@@](O)(CC(=O)O)C(=O)O [Compound 63]	10	> 1000

SMILES	IC50 [1] [nM]	CC50 (in vitro) [nM]
CCCCCCCC(=O)CCCCCC/C=C/[C@H](C(=O)N[C@@H](Cc1ccc(Oc2cccc(F)c2)cc1)C(=O)O)[C@@](O)(CC(=O)O)C(=O)O [Compound 64]	7	> 1000
CCCCCCCC(=O)CCCCCC/C=C/[C@H](C(=O)N[C@@H](Cc1ccc(-c2ccccc2F)cc1)C(=O)O)[C@@](O)(CC(=O)O)C(=O)O [Compound 65]	2	> 1000
CCCCCCCC(=O)CCCCCC/C=C/[C@H](C(=O)N[C@@H](Cc1ccc(-c2cccc(F)c2)cc1)C(=O)O)[C@@](O)(CC(=O)O)C(=O)O [Compound 66]	6	> 1000
CCCCCCCC(=O)CCCCCC/C=C/[C@H](C(=O)N[C@@H](Cc1ccc(Oc2ccc(N(C)C)cc2)cc1)C(=O)O)[C@@](O)(CC(=O)O)C(=O)O [Compound 67]	4	> 1000
CCCCCCCC(=O)CCCCCC/C=C/[C@H](C(=O)N[C@@H](Cc1ccc(-c2ccc(N(C)C)cc2)cc1)C(=O)O)[C@@](O)(CC(=O)O)C(=O)O [Compound 68]	2	> 1000
CCCCCCCC(=O)CCCCCC/C=C/[C@H](C(=O)N[C@@H](Cc1ccc(Nc2ccccc2)cc1)C(=O)O)[C@@](O)(CC(=O)O)C(=O)O [Compound 69]	2	> 1000
CCCCCCCC(=O)CCCCCC/C=C/[C@H](C(=O)N[C@@H](Cc1ccc(Oc2ccc(C#N)cc2)cc1)C(=O)O)[C@@](O)(CC(=O)O)C(=O)O [Compound 70]	11	> 1000
CCCCCCCC(=O)CCCCCC/C=C/[C@H](C(=O)N[C@@H](Cc1ccc(-c2ccc(C#N)cc2)cc1)C(=O)O)[C@@](O)(CC(=O)O)C(=O)O [Compound 71]	4	> 1000
CCCCCCCC(=O)CCCCCC/C=C/[C@H](C(=O)N[C@@H](Cc1ccc(N2CCOCC2)cc1)C(=O)O)[C@@](O)(CC(=O)O)C(=O)O [Compound 72]	6	> 1000
CCCCCCCC(=O)CCCCCC/C=C/[C@H](C(=O)N[C@@H](Cc1ccc(-c2ccc(OC)nc2)cc1)C(=O)O)[C@@](O)(CC(=O)O)C(=O)O [Compound 73]	2	> 1000
CCCCCCCC(=O)CCCCCC/C=C/[C@H](C(=O)N[C@@H](Cc1ccc(-c2ccc(S(=O)(=O)N(C)C)cc2)cc1)C(=O)O)[C@@](O)(CC(=O)O)C(=O)O [Compound 74]	135	> 1000
CCCCCCCC(=O)CCCCCC/C=C/[C@H](C(=O)N[C@@H](Cc1ccc(N(C)c2ccccc2)cc1)C(=O)O)[C@@](O)(CC(=O)O)C(=O)O [Compound 75]	6	> 1000
CCCCCCCC(=O)CCCCCC/C=C/[C@H](C(=O)N[C@@H](Cc1ccc(-c2cncnc2)cc1)C(=O)O)[C@@](O)(CC(=O)O)C(=O)O [Compound 76]	13	> 1000
CCCCCCCC(=O)CCCCCC/C=C/[C@H](C(=O)N[C@@H](Cc1ccc(-c2ccc(SC)cc2)cc1)C(=O)O)[C@@](O)(CC(=O)O)C(=O)O [Compound 77]	7	> 1000
CCCCCCCC(=O)CCCCCC/C=C/[C@H](C(=O)N[C@@H](Cc1ccc(-c2cncc(OC)c2)cc1)C(=O)O)[C@@](O)(CC(=O)O)C(=O)O [Compound 78]	3	> 1000
CCCCCCCC(=O)CCCCCC/C=C/[C@H](C(=O)N[C@@H](Cc1ccc(-c2c(C)noc2C)cc1)C(=O)O)[C@@](O)(CC(=O)O)C(=O)O [Compound 79]	104	> 1000
CCCCCCCC(=O)CCCCCC/C=C/[C@H](C(=O)N[C@@H](Cc1ccc(-c2ccc(S(C)(=O)=O)cc2)cc1)C(=O)O)[C@@](O)(CC(=O)O)C(=O)O [Compound 80]	71	> 1000
